These results are taken from patent US20070065366A1, “Pharmaceutical formulations comprising a long-acting beta2-agonist for administration by nebulisation” (Chiesi Farmaceutici S.p.A., priority 2005, published 2007).

The nature of series [1]: First stability study of CHF 4226 solutions, pH 3.0 to 6.0 adjusted with different agents (HPLC). Type of series: physicochemical. The conditions noted are these: for stability (total impurities/degradation products): compared with not stable, higher than 5% after 1 month accelerated. How it is done:
Stability studies in different conditions of pH were carried out.
The amount of the main degradation products and the total impurities and degradation products of CHF 4226 were determined by HPLC.
Total impurities and degradation products comprise the starting impurities present in the drug, the main degradation products and other minor degradation products forming during storage.
In a first study, the effect of the pH in a rather broad range comprised between 3.0 and 6.0 adjusted with different kind of agents was investigated.
The different formulations were stored under long term (25° C., 60% R.H.) and accelerated (40° C., 75% R.H.) conditions for three months.

A short description of series [2]: Stability of CHF 4226 in aqueous solution, pH 4.0 to 5.5, buffers comprising citric acid at different concentrations (HPLC). Type of series: physicochemical. The conditions noted are these: pH interval between 4.0 and 5.0, 40° C., 75% R.H. The protocol:
The chemical stability of CHF 4226 was then investigated in the pH interval comprised from 4.0 to 5.5 adjusted with buffers comprising citric acid at different concentrations.
The different formulations were stored under accelerated conditions (40° C., 75% R.H.) for at least four months.
Various liquid, propellant-free formulations comprising 0.001% w/v CHF 4226 were prepared according the procedure described in the Example 1 except that sodium chloride was not added in order to better appreciate the effect of the buffer concentration on the chemical stability.
The pH was adjusted in the interval comprised between 4.0 and 5.5 with buffers consisting of different relative percentages of the citric acid/sodium citrate couple or the citric acid/dibasic sodium phosphate couple. Each formulation was distributed in 20 ml glass vials.
The stability of the formulations was evaluated under accelerated conditions (40° C., 75% R.H.) for at least four months.
The impurities/degradation products of CHF 4226 were determined by HPLC using the experimental conditions reported in the Example 2.

The conditions of series [3]: cited from earlier work.

Turning to `COc1ccc(C[C@@H](C)NC[C@H](O)c2ccc(O)c3[nH]c(=O)ccc23)cc1` [CHF 4226, 8-hydroxy-5-[(1R)-1-hydroxy-2-[[(1R)-2-(4-methoxyphenyl)-1-methylethyl]amino]ethyl]-2(1H)-quinolinone], the “chemical stability in aqueous solution” value in series [1] (pH 4.5±0.1, citrate buffer about 19 mM, compared with other pH/agents, 25° C./60% R.H. and 40° C./75% R.H., three months) was “chemically more stable”. Moreover, the “stability (total impurities/degradation products)” value was “analogous behavior” in series [1] (phosphoric acid, pH 3.0) and “analogous behavior” in series [1] (phosphoric acid/phosphate buffer, pH 6.0). Also, in series [2], the chemical stability result is “improved”.

`CCC(NC(C)C)C(O)c1ccc(O)c2[nH]c(=O)ccc12` (stereo not shown) [procaterol]: the stability in solution entry in series [3] (pH 4.0 to 6.0, acetate or acetate/phosphate buffer, protected from air) is reported as “more stable at more acidic pHs”. Further, in series [3] (presence of ferric ions, except the solution at pH 6.0 (acetate and phosphate buffer)), the “effect of ferric ions on the auto-oxidation rate” value is given as “increased the auto-oxidation rate”. Moreover, in series [3] (solutions at pH 4.0, 4.5, 5.0, 5.5 and 6.0), the “pH at which the lowest degradation rate was obtained” value is recorded as 4.0.
